Assay results published in US6894050B2, “5-HT receptor ligands and uses thereof” (Pfizer Inc., priority 2001, dated 2005).
Counter-ions that a name gives are not always drawn.

How the values were obtained:
human 5HT2c receptor = target: T1, human 5HT2c receptor (Homo sapiens, UniProt P28335); test: 5HT2c Binding Procedure (competition binding against 3H-5HT); details: Swiss 3T3 mouse cells transfected with human 5HT2c receptor
T1 construct: expressed in transfected cells; host or cells: Swiss 3T3 mouse cells
T1 sequence (P28335 33-458): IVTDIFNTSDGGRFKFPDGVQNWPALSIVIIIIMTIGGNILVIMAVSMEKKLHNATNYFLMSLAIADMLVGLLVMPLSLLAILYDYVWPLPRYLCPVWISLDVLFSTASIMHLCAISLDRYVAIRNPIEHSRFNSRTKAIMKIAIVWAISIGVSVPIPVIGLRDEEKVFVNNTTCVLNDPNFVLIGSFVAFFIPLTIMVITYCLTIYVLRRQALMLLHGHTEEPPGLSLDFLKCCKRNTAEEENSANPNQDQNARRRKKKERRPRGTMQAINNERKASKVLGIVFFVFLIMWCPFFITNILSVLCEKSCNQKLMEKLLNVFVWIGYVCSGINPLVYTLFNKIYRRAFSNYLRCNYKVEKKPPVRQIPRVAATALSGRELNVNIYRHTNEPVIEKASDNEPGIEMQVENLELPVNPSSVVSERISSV
Experimental: Affinity of compounds at the serotonin 5HT2c binding site was determined by competition binding in Swiss 3T3 mouse cells (available from the American Type Culture Collection (ATCC), Manassas, Va.) transfected with the human 5HT2c receptor against 3H-5HT. The method was adapted from Roth et al., J. of Pharm. And Exp. Therap., 260(3), 1362-1365 (1992). Cells were grown in DMEM high glucose medium, harvested, homogenized, centrifuged, and resuspended in 50 mM Tris-HCL. They were incubated at 37° C. for 15 minutes, centrifuged, and then resuspended into assay buffer (50 mM Tris-HCl, 4 mM CaCl2, 0.1% ascorbic acid, and 100 μM pargyline at pH 7.7) at 100 volumes per gram. Assay tubes contained 25 μL of 10 nM ^3H-5HT (1 nM final conc.), and 25 μl of vehicle (assay buffer), blank (10 μM mianserin), or test compound (10× final volume). 200 μl of tissue homogenate was added to each tube, vortexed, and incubated for 30 minutes at 37° C. Samples were then rapidly filtered under vacuum with a Skatron™ cell harvester (available from Molecular Devices Corporation, Sunnyvale, Calif.) using GF/B filters presoaked in 0.5% polyethyleneimine (PEI), and washed with 2×5 mL cold 50 mM Tris-HCl. Filter mats were removed and counted in a Wallac Betaplate counter (available from PerkinElmer Life Sciences, Gaithersburg, Md.). […]

[1] = test system: anaesthetised rabbit model of erection; test: Penile ICP in anaesthetised rabbit model of erection, combination with PDE5 inhibitor; type: in vivo; details: 5-10 mg/kg s.c. with selective PDE5 inhibitor 1 mg/kg i.v.
Experimental: The effects of concomitant administration of compound(s) of formula (I) in combination with a PDE5 inhibitor on the penile intracavernosal pressure (ICP) in an anaesthetised rabbit model of erection can be measured according to the following protocol.
Male New Zealand rabbits (˜2.5 kg) are pre-medicated with a combination of Medetomidine (Domitor®) 0.5 ml/kg inramuscularly (i.m.), and Ketamine (Vetalar®) 0.25 ml/kg i.m. whilst maintaining oxygen intake via a face mask. The rabbits are tracheotomised using a Portex™ uncuffed endotracheal tube 3 ID (internal diameter), connected to ventilator and maintained at a ventilation rate of 30-40 breaths per minute, with an approximate tidal volume of 18-20 ml, and a maximum airway pressure of 10 cm H2O. Anaesthesia was then switched to Isoflurane® and ventilation continued with O2 at 2 liters/min. The right marginal ear vein was cannulated using a 23G or 24G catheter, and Lactated Ringer solution perfused at 0.5 ml/min. […]
The left groin area of the rabbit was shaved and a vertical incision was made approximately 5 cm in length along the thigh. […] Systolic and diastolic pressures were measured, and the mean arterial pressure calculated using the formula (diastolic×2+systolic)÷3. Heart rate was measured via the pulse oxymeter and Po-ne-mah data acquisition software system (Ponemah Physiology Platform, Gould Instrument Systems Inc). […]

conscious male rat = test: Intracavernosal pressure (ICP) by telemetric recording in the conscious male rat; type: in vivo
Description: ICP Protocol: Intra cavernosal pressure (ICP) can be measured in the conscious rat by means of telemetric recording. A catheter is surgically implanted into the corpus cavernosum. The end of the catheter is linked to a device, which senses, processes, and transmits information digitally from within the animal. A receiver converts the radio-frequency signal from the implant to a digital pulse stream that is readable by a data collection system. The PC-based system collects telemetred data from the animal.
Surgery:—Induce and maintain general anaesthesia using 5% Isoflurane® in a carrier gas of 0.5 L/min oxygen and 1 L/min nitrous oxide to induce anaesthesia, reducing to 2% Isoflurane for maintenance anaesthesia. Administer 5 mg/kg subcutaneously (s.c.) Carprofen (Rimadyl® Large Animal Injection, 50 mg/ml, Pfizer Animal Health) at induction of anaesthesia, at end of day of surgery and on the morning of first day post-surgery to minimise pain and discomfort.
Implantation of corpus cavernosal probe:—Shave the skin of the ventral abdomen and extend to include the area around the penis and ventral scrotum. Clean and disinfect the shaved area. Place the rat in dorsal recumbency. Make a mid-line incision from the external base of the penis, running caudally for approximately 2 cm. Locate and expose the internal structure of the penis and identify the corpus cavernosum. Make a mid-line laparotomy, approximately 4 cm in length to access the abdominal cavity. Pierce the abdominal wall via the caudal incision with a suitable trocar and cannula, taking care not to damage any internal organs. Place the implant body in the abdominal cavity with the catheter orientated caudally and pass the catheter tip through the body wall via the preplaced cannula. Implant used is model TA11PA-C40, 8 mm catheter, with modified 3 mm tip (Data Sciences International Inc.). Secure the implant body to the abdominal wall using non-absorbable sutures and partially close the abdominal incision. Reflect the tip of the penis cranially and retract the caudal incision to optimise the surgical field. Carefully isolate approximately 10 mm of the internal structure of the penis from the surrounding tissue. Carefully reflect the corpus spongiosum to one side to give access to the corpus cavernosum. Access the corpus cavernosum using a modified over-the-needle catheter to puncture the tunica. Introduce the catheter tip via the preplaced catheter and advance until fully inserted. Carefully remove the access catheter and apply a suitable tissue adhesive to the insertion site. Observe for leakage. Close the subcutaneous fat layer in the caudal incision before closing with an appropriate absorbable suture. Instil approximately 5 ml of warm saline through the abdominal incision and complete closure of the mid-line incision. Close the skin incision with an appropriate absorbable suture.
Postoperative care:—Measure food and water intake and monitor bodyweight daily for at least 7 days post surgery, then 2-3 times weekly. Give Lectade® (Pfizer Animal Health) in drinking water for 3 days post surgery. House rats singly, and transfer to reverse light/dark conditions 5 days post surgery. Named Veterinary Surgeon (or Deputy) to issue a certificate of fitness to continue 2 days post surgery. Start using rats experimentally 7 days post surgery.
Experimental Procedure:—Perform experiment in room with reverse light/dark conditions. […] Take baseline reading of intra cavernosal pressure (ICP) for approximately 5 minutes. […]

rat 5HT2A receptor = target: T2, rat 5HT2A receptor (Rattus norvegicus, UniProt P14842); test: 5HT2A Binding Procedure (competition binding using 125I-DOI); details: NIH 3T3 mouse cells transfected with rat 5HT2A receptor, read-out: Ki values for 5HT2a binding (upper end of range)
T2 construct: expressed in transfected cells; host or cells: NIH 3T3 mouse cells
T2 sequence (P14842 whole entry): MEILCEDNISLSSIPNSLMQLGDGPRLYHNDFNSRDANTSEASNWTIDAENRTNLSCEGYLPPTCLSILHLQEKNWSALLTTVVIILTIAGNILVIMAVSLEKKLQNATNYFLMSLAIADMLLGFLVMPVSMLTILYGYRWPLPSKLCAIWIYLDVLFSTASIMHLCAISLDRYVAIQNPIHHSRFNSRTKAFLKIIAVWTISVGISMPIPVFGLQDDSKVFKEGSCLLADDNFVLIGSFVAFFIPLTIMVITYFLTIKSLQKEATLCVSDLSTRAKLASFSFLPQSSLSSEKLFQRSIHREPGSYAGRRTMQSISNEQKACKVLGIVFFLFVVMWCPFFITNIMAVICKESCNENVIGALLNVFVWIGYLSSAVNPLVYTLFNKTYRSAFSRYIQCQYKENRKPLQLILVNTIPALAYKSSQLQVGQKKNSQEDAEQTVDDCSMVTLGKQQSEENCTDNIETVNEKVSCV
Experimental: Affinity of compounds at the serotonin 5HT2A binding site was determined by competition binding in NIH 3T3 mouse cells transfected with the rat 5HT2A receptor using 125I-DOI. The method was adapted from Leonhardt et al., Molecular Pharmacology, 42, 328-335 (1992). Frozen cell paste was homgenized in 50 mM tris-HCl buffer pH 7.4 containing 2 mM MgCl2 using a Polytron and centrifuged at 45000×g for ten minutes. The resulting pellet was resuspended in fresh ice-cold 50 mM tris-HCl buffer pH 7.4 containing 2 mM MgCl2 using a Polytron™ and centrifuged again at 45000×g for ten minutes. The final pellet was resuspended in 50 mM tris-HCl buffer pH 7.4 containing 2 mM MgCl2 at a concentraion of 5 mg/mL. Wells in a 96 well plate contained 25 μL of 0.7 nM 125I-DOI (70 pM final conc.), and 25 μL of vehicle (assay buffer), blank (10 μM cinanserin), or test compound (10× final volume). […] Filter mats were removed, dried and counted in a Wallac Betaplate counter. Concentration-response curves of the % inhibition of specific binding and log concentration by test compounds were used to determine the IC50 for each compound and the Ki value calculated based on the Cheng-Prusof equation (Ki=IC50/(1+(L/Kd)), where L is the concentration of the radioligand used in the binding assay and the Kd was based on previous saturation studies with the radioligand.

c1ccc(COc2cncc(N3CCNCC3)n2)nc1 [Example 1-AW, 6′-(Pyridin-2-ylmethoxy)-3,4,5,6-tetrahydro-2H-[1,2′]bipyrazinyl hydrochloride salt]
Ki (human 5HT2c receptor): 586 nM

Fc1ccc(F)c(COc2cncc(N3CCNCC3)n2)c1 [Example 1-M, 6′-(2,5-Difluoro-benzyloxy)-3,4,5,6-tetrahydro-2H-[1,2′]bipyrazinyl]
effects on ICP of concomitant administration with PDE5 inhibitor [1]: beneficial effects on ICP
number of erectogenic events in a 15 minute test period (conscious male rat; 5 mg/kg s.c.): significantly increased
number of erectogenic events induced at 120 minutes after dosing (conscious male rat; 120 minutes after dosing): no difference
proerectile effects in the conscious rat (conscious male rat; conscious rat): induced proerectile effects
Number of erectogenic events @ 60 min (conscious male rat; conscious rat, 5 mg/kg s.c., 15 minute period, 60 min post injection): 1.5 ± 0.3
Number of erectogenic events @ 120 min (conscious male rat; conscious rat, 5 mg/kg s.c., 15 minute period, 120 min post injection): 1.3 ± 0.5

Cc1cccc(CNc2cncc(N3CCNCC3)n2)n1 [Example 4-R, (6-Methyl-pyridin-2-ylmethyl)-(3,4,5,6-tetrahydro-2H-[1,2′]bipyrazinyl-6′-yl)-amine fumarate salt]
Ki (rat 5HT2A receptor): 1000 nM
